The source made the active and inactive calls. The calls are words filed in the database; no cut-off is given here.
Experiments:
[1] = Chemical stability in 0.1 M HCl at pH 1.2 assessed as half life measured up to 12 hrs by HPLC analysis; assay type: physicochemical
[2] = Chemical stability in acetate buffer at pH 4.5 assessed as half life measured up to 12 hrs by HPLC analysis; assay type: physicochemical
[3] = Chemical stability in phosphate buffer at pH 6.8 assessed as half life measured up to 12 hrs by HPLC analysis; assay type: physicochemical
[4] = Chemical stability in phosphate buffer at pH 7.2 assessed as half life measured up to 12 hrs by HPLC analysis; assay type: physicochemical
[5] = Stability in simulated gastric fluid at pH 1.2 assessed as half life measured up to 12 hrs by HPLC analysis; assay type: ADME
[6] = Stability in simulated intestinal fluid at pH 6.8 assessed as half life measured up to 12 hrs by HPLC analysis; assay type: ADME
[7] = Metabolic stability in healthy C57BL/6 mouse jejunum assessed as half life measured up to 12 hrs by HPLC analysis; assay type: ADME, tissue-based
[8] = Metabolic stability in healthy C57BL/6 mouse colon assessed as half life measured up to 12 hrs by HPLC analysis; assay type: ADME, tissue-based
[9] = Metabolic stability in healthy C57BL/6 mouse colonic flora homogenate assessed as half life measured up to 12 hrs by HPLC analysis; assay type: ADME
[10] = Metabolic stability in healthy C57BL/6 mouse liver assessed as half life measured up to 12 hrs by HPLC analysis; assay type: ADME, tissue-based
[11] = Metabolic stability in healthy C57BL/6 mouse plasma assessed as half life measured up to 12 hrs by HPLC analysis; assay type: ADME, cell-free
[12] = Metabolic stability in DSS-induced C57BL/6 mouse jejunum assessed as half life measured up to 12 hrs by HPLC analysis; assay type: ADME, tissue-based
[13] = Metabolic stability in DSS-induced C57BL/6 mouse colon assessed as half life measured up to 12 hrs by HPLC analysis; assay type: ADME, tissue-based
[14] = Metabolic stability in DSS-induced C57BL/6 inflammatory mouse model colonic flora homogenate assessed as half life measured up to 12 hrs by HPLC analysis; assay type: ADME; settings: C57BL/6, mouse
[15] = Stability in human Caco-2 cells homogenate assessed as half life measured up to 12 hrs by HPLC analysis; assay type: ADME, cell-based; settings: Caco-2 cell homogenate
[16] = target: T1, Solute carrier family 15 member 1 (Rattus norvegicus, UniProt P51574); assay: Substrate activity in PEPT1 in Sprague-Dawley rat jejunum assessed as fold increase in effective permeability at 5 mM measured up to 60 mins in presence of Gly-Sar by HPLC analysis relative to its enantiomers; assay type: ADME, tissue-based; settings: 1 h, 5000 µM
T1 sequence (P51574 whole entry): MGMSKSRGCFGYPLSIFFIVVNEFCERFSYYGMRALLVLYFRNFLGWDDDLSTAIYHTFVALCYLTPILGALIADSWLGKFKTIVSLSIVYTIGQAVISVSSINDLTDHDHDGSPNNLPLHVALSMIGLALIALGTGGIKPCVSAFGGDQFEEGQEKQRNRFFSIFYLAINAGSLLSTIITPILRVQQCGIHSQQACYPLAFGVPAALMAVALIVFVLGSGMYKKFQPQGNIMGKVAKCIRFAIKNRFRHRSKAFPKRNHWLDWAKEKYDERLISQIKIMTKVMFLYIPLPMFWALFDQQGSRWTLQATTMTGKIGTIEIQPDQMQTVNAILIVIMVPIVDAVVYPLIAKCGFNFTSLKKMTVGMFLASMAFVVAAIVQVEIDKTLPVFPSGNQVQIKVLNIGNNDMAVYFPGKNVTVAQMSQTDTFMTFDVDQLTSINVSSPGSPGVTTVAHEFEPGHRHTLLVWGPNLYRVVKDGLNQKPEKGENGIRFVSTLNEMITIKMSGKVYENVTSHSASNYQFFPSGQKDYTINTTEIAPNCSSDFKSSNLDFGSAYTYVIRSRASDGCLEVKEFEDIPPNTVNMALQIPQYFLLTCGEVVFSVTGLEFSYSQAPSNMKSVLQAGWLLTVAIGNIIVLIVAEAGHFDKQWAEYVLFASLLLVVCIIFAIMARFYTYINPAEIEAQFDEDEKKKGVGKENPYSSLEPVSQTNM

[17] = target: T2, Solute carrier family 15 member 1 (Homo sapiens, UniProt P46059); assay: Substrate activity at PEPT1 in human Caco-2 cells assessed as inhibition of Gly-Sar substrate uptake by UPLC-MS/MS analysis; assay type: cell-based
T2 sequence (P46059 whole entry): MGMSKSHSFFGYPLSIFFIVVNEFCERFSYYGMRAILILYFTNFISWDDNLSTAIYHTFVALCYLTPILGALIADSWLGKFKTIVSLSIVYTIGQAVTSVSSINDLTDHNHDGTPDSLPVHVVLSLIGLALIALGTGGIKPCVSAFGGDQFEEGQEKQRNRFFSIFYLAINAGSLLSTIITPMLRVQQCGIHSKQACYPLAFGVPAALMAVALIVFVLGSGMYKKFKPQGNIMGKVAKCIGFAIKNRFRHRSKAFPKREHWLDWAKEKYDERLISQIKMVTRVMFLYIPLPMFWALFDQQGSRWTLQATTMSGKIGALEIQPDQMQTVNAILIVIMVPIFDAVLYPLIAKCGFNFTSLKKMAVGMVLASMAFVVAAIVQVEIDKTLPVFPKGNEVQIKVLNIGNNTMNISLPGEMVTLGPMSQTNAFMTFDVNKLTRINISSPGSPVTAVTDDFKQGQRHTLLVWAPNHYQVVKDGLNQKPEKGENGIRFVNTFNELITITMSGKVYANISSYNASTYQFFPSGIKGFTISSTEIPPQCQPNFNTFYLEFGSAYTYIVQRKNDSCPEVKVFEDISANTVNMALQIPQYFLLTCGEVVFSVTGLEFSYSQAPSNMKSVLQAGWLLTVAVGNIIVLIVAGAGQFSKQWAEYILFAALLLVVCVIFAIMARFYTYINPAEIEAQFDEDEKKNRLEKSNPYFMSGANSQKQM

[18] = target: T2, Solute carrier family 15 member 1; assay: Substrate activity at PEPT1 in human Caco-2 cells assessed as fold increase in drug uptake by UPLC-MS/MS analysis relative to its enantiomers; assay type: ADME, cell-based
[19] = target: T2, Solute carrier family 15 member 1; assay: Substrate activity at PEPT1 in human Caco-2 cells assessed as fold reduction in drug uptake in presence of Gly-Sar by UPLC-MS/MS analysis relative to its enantiomers; assay type: ADME, cell-based
[20] = AUC (0 to 6 hrs) in DSS-induced colitis C57BL/6 mouse model at 25 mg/kg, po measured up to 6 hrs by UPLC-MS/MS analysis; assay type: ADME, organism-based; design: route oral, dose 25 mg/kg, time <=6; settings: in vivo
[21] = Cmax in DSS-induced colitis C57BL/6 mouse model at 25 mg/kg, po measured up to 6 hrs by UPLC-MS/MS analysis; assay type: ADME, organism-based; design: route oral, dose 25 mg/kg, time <=6; settings: in vivo
[22] = Tmax in DSS-induced colitis C57BL/6 mouse model at 25 mg/kg, po measured up to 6 hrs by UPLC-MS/MS analysis; assay type: ADME, organism-based; settings: in vivo
Mus musculus [23] = assay: Anti-colitis activity against DSS-induced colitis in C57BL/6 mouse model assessed as assessed as recovery of body weight at 25 mg/kg, po administered via gavage twice daily for 10 days; assay type: functional, organism-based; settings: time 10.0 day
Mus musculus [24] = assay: Anti-colitis activity against DSS-induced colitis in C57BL/6 mouse model assessed as increase in colon length at 25 mg/kg, po administered via gavage twice daily for 10 days; assay type: functional, organism-based; settings: time 10.0 day
Mus musculus [25] = assay: Anti-colitis activity against DSS-induced colitis in C57BL/6 mouse model assessed as fold decrease in disease activity index at 25 mg/kg, po administered via gavage twice daily for 10 days relative to control; assay type: functional; settings: time 10 day
[26] = Apparent permeability across apical to basolateral side in human Caco-2 cells assessed as fold increase in permeability at 0.5 mM measured up to 60 mins by UPLC-MS/MS analysis relative to its enantiomers; assay type: ADME, cell-based; settings: caco-2, 1 h, 500 µM
Jejunum = assay: Effective permeability in Sprague-Dawley rat jejunum assessed as fold increase in permeability at 5 mM measured up to 60 mins by HPLC analysis relative to its enantiomers; assay type: ADME, tissue-based; settings: 1 h, 5000 µM

In the case of `O=C(O)[C@H](CO)NC(=O)[C@@H]1C[C@@H](O)CN1`, the half-life [1] is reported as > 720 min, the half-life [2] is reported as > 720 min and the half-life [3] is reported as > 720 min. The half-life [4] was > 720 min, the half-life [5] was > 720 min and the half-life [6] was > 720 min. For the same compound, the half-life [7] was 21 min, the half-life [8] was > 720 min and the half-life [9] was 51.6 min. For the same compound, the half-life [10] was 16.2 min, the half-life [11] was > 720 min and the half-life [12] was 17.4 min. The half-life [13] was > 720 min, the half-life [14] was 52.8 min and the half-life [15] was > 720 min. For the same compound, the “fold change (FC)” value [16] was 7.8, the IC50 [17] was 5.18 mM and the “fold change (FC)” value [18] was 3.3. The “fold change (FC)” value [19] was 3.4, the AUC [20] was 1.34 microM/L.hr and the Cmax [21] was 0.52 µM. The Tmax [22] was 2 h, the Activity (Mus musculus [23]) was “Active” and the Activity (Mus musculus [24]) was “Active”. The “fold change (FC)” value (Mus musculus [25]) was 1.5, the “fold change (FC)” value [26] was 6.3 and the “fold change (FC)” value (Jejunum) was 7.3.
